The text below walks through data of patent US7869664B2, “Systems and methods for alignment of objects in images” (priority 2007, dated 2011).

The mortality is the percentage killed.

Data set [1] relates to hepatic acetaminophen-protein adducts. The following applies: resistant SJL strain compared with sensitive C57B6 strain; previously shown; cited from earlier work.
In data set [2] the test system is inbred mouse strains. How it is done: For the genetic analysis, the susceptibility of a panel of 16 inbred mouse strains to developing liver toxicity after a single 300 mg/kg intraperitoneal dose of acetaminophen was assessed. This dose is known to cause liver toxicity in mice. During the 24 hour period after dosing, serum alanine aminotransferase (ALT), morbidity and liver histochemistry were assessed as indices of liver toxicity.
Animal husbandry and drug treatment. Seven to eight week old male mice were obtained from Jackson Laboratory (Bar Harbor, Me.) and acclimatized for an additional week before use. The following 16 inbred mouse strains were studied: SJL, LGJ, BALB/cJ, DBA/2J, A/J, AKR/J, A/HeJ, 129/SvJ, B10.D2-H2/oSNJ, C57BL/6J, NZW/LaCJ, NZB/BInJ, MRL/MpJ, C3H/HeJ, LP/J, SM/J. The mice were housed under pathogen-free environment and provided food and water ad libitum with a 12h: 12h light: dark cycle until experimental use. Before each experiment, food was withheld from the animals overnight (greater than sixteen hours) to uniformly deplete hepatic glutathione stores. All mice were administered a single 300 mg/kg intraperitoneal dose of freshly prepared acetaminophen (Voigt Global Distribution Inc.) suspended in PBS (pH 7.4), and were allowed free access to food and water after treatment. The mice were euthanized by CO2 inhalation to collect blood samples and liver tissues at zero, three, and six hours after dosing. The remaining mice were monitored for 48 hours for the occurrence of acetaminophen-induced deaths. Blood samples were withdrawn by cardiac puncture and placed in EDTA-coated tubes, and plasma samples were isolated by centrifugation. Alanine aminotransferase (ALT) activity was measured at the Marshfield Clinic Laboratories (Marshfield, Wis.). Liver tissues were removed immediately and cut into two sections. The smaller section was fixed in buffered formalin, processed by standard histological techniques, stained with hematoxylin and eosin, and examined for histopathologic evidence of liver injury. The remaining sections were snap-frozen in liquid nitrogen and stored at −80° C. for gene expression and metabolite analysis.

Data set [3] deals with hepatic glutathione. In words: Endogenous liver metabolite profiling by 1H-13C two-dimensional NMR after acetaminophen exposure. Type of data set: in vivo, mouse. As to conditions: three hours after acetaminophen administration. How it is done:
Analysis of acetaminophen-induced endogenous metabolite and gene expression changes. Endogenous metabolites and gene expression changes in liver were examined at 0, 3 and 6 hours after acetaminophen exposure in the resistant (SJL) and three sensitive strains (DBA, SMJ and C57) strains in order to identify the pathways and genes contributing to resistance to acetaminophen-induced liver toxicity. The endogenous metabolites were profiled using ^1H—^13C two-dimensional-NMR analysis. Over 400 metabolite peaks were quantified and analyzed by this method, and principal component analysis (PCA) (Duda, 2001, Pattern Classification, John Wiley & Sons, Inc., pp. 568-569, which is hereby incorporated by reference herein) was used to identify metabolite peaks that distinguished the response of the sensitive strain from the three resistant strains. […]
Therefore, the metabolites within the peaks that distinguished the response of the resistant strain from the three sensitive strains at zero and three hours after drug exposure were identified. […] Using resonance assignments and confirmation experiments with purified compounds, the identity of eight of these nine peaks was determined. […]
NMR spectra were recorded at 300°K on a Bruker Avance 600 MHz spectrometer operating at ^1H frequency of 599.99 MHz and ^13C frequency of 150.87 MHz using a 3 mm Nalorac microprobe with z-axis pulsed-field gradient. […]

For data set [4], the system named is Ddit3, Dnajb1, and Gadd45ga. In words: Hepatic gene expression profiles (microarrays) after acetaminophen treatment. In kind it is in vivo, mouse. As to conditions: liver; SJL and three sensitive strains. From the text:
Differential susceptibility to a hepatotoxic dose of acetaminophen could result from differences in the rate of production of the reactive quinone metabolite that causes liver toxicity. […] Thus, a hepatotoxic dose of acetaminophen induces the formation of protein adducts and activates the DNA damage response in resistant SJL mice to the same extent as in the susceptible strains.
Therefore, the metabolites within the peaks that distinguished the response of the resistant strain from the three sensitive strains at zero and three hours after drug exposure were identified. […] Using resonance assignments and confirmation experiments with purified compounds, the identity of eight of these nine peaks was determined. Three peaks were assigned to glutathione. […] Five other metabolite peaks were assigned to alanine, lactate and betaine. Microarrays were simultaneously used to analyze gene expression in liver obtained from these four strains before (zero hr) and three hours after acetaminophen administration. […] This large number of differentially expressed genes limited the utility of analyzing the gene expression data by itself. However, an integrated analysis of the gene expression and metabolite data provided a more restricted set of pathways and genes to consider. […]

The structures appear in SMILES notation. Like-named read-outs stand apart in the source and are kept apart here.

Turning to `CC(=O)Nc1ccc(O)cc1` [acetaminophen], the “hepatic acetaminophen-protein adducts generated” value in data set [1] is “same amount of hepatic acetaminophen-protein adducts”. Besides, the mortality entry in data set [2] (15 sensitive strains, single 300 mg/kg intraperitoneal dose) is “mortality in a significant percent of the mice”; in data set [2] (C57B6 mice, within six hours after dosing) it was 100%; in data set [2] (SJL mice, single 300 mg/kg intraperitoneal dose), “no mortality”; in data set [2] (three sensitive strains (C57BL6, DBA/2, SMJ), within forty-eight hours after treatment) it was “at least 60%”. Also, the “time at which mortality occurred after dosing” value in data set [2] (DBA/2 strain) worked out at 48 h; in data set [2] (SMJ strain), 24 h. In data set [2] (SJL mice, within forty-eight hours after treatment), the survival entry was “all SJL mice survived”. Moreover, the “increase in serum ALT” value in data set [2] (mouse, in vivo, ip, 300 mg/kg) is “much smaller and transient increase”. For the same molecule, the hepatic glutathione concentration entry in data set [3] (SJL strain) is “maintained its hepatic glutathione concentration”. In data set [3] (three sensitive strains), the hepatic glutathione levels entry is “significantly decreased”. Moreover, the “level of expression of three DNA damage response genes (Ddit3, Dnajb1, Gadd45ga)” value in data set [4] is on record as “increased to the same extent in all four strains”.
